Laboratory results: PubChem BioAssay (NCI)
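Assay format: 96-well plates, 48-hour exposure. TGI is the concentration that stops growth completely.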

Key:
Experiment in all cases: inhibition of tumour cell growth, NCI panel, 48 h
A498 renal = tested on: A498 renal
HCT-116 colon = tested on: HCT-116 colon
HOP-62 NSCLC = tested on: HOP-62 NSCLC
HT29 colon = tested on: HT29 colon
OVCAR-5 ovarian = tested on: OVCAR-5 ovarian
RXF 393 renal = tested on: RXF 393 renal
SK-MEL-28 melanoma = tested on: SK-MEL-28 melanoma
SK-OV-3 ovarian = tested on: SK-OV-3 ovarian
SR leukemia = tested on: SR leukemia
SW-620 colon = tested on: SW-620 colon
U251 CNS = tested on: U251 CNS
UACC-257 melanoma = tested on: UACC-257 melanoma
UACC-62 melanoma = tested on: UACC-62 melanoma
COLO 205 colon = tested on: COLO 205 colon
SF-295 CNS = tested on: SF-295 CNS
SK-MEL-5 melanoma = tested on: SK-MEL-5 melanoma
T-47D breast = tested on: T-47D breast
MDA-N = tested on: MDA-N

Structure (SMILES)	TGI (A498 renal)	TGI (HCT-116 colon)	TGI (HOP-62 NSCLC)	TGI (HT29 colon)	TGI (OVCAR-5 ovarian)	TGI (RXF 393 renal)	TGI (SK-MEL-28 melanoma)	TGI (SK-OV-3 ovarian)	TGI (SR leukemia)	TGI (SW-620 colon)	TGI (U251 CNS)	TGI (UACC-257 melanoma)	TGI (UACC-62 melanoma)	TGI (COLO 205 colon)	TGI (SF-295 CNS)	TGI (SK-MEL-5 melanoma)	TGI (T-47D breast)	TGI (MDA-N)
S=C(Nc1ccccc1)N1N=C2c3ccccc3CC[C@H]2[C@@H]1c1ccccc1	> 100 µM	> 100 µM	> 100 µM	> 100 µM	> 100 µM	> 100 µM	> 100 µM	> 100 µM	1.96 µM	> 100 µM	> 100 µM	> 100 µM	> 100 µM	–	–	–	–	–
CC(=O)NC(CCCCNC(=O)N(C)N=O)C(=O)NCc1ccccc1 (configuration not stated)	> 100 µM	> 100 µM	> 100 µM	> 100 µM	> 100 µM	> 100 µM	> 100 µM	> 100 µM	–	> 100 µM	> 100 µM	> 100 µM	> 100 µM	> 100 µM	> 100 µM	> 100 µM	–	–
O=c1[nH]c(=O)n(C2CC(O)C(CO)O2)cc1C#Cc1cc(F)cc(F)c1 (configuration not stated)	–	–	> 100 µM	> 100 µM	> 100 µM	–	> 100 µM	> 100 µM	–	> 100 µM	> 100 µM	> 100 µM	> 100 µM	> 100 µM	> 100 µM	> 100 µM	–	–
O=C(c1ccccc1)c1c(CNCc2ccccc2)n(C(=O)c2ccccc2)c2ccccc12	–	> 100 µM	> 100 µM	> 100 µM	> 100 µM	–	> 100 µM	–	80.7 µM	> 100 µM	> 100 µM	> 100 µM	> 100 µM	> 100 µM	41.7 µM	> 100 µM	–	–
N#Cc1c2nc3ccccc3nc2n2ccc3ccccc3c12	–	> 100 µM	–	> 100 µM	> 100 µM	–	> 100 µM	> 100 µM	–	–	> 100 µM	> 100 µM	–	> 100 µM	> 100 µM	> 100 µM	–	–
C/C(=N\Nc1nc2ccccc2o1)c1ccncn1	10.7 µM	> 33.6 µM	> 68.7 µM	> 35.6 µM	> 100 µM	–	> 100 µM	17.4 µM	> 100 µM	> 39.3 µM	> 36.4 µM	> 27.5 µM	–	> 51.3 µM	> 100 µM	> 81.6 µM	23.2 µM	–
COc1ccc([C@@H]2CC(=O)NCCCCNCCCN2)cc1	> 100 µM	> 100 µM	> 100 µM	> 100 µM	> 100 µM	> 100 µM	> 100 µM	> 100 µM	> 100 µM	> 100 µM	> 100 µM	> 100 µM	> 100 µM	> 100 µM	> 100 µM	> 100 µM	–	–
CSc1ccc2c(cc1=O)[C@@H](NC(=O)c1ccc(F)cc1)CCc1cc(O)c(O)c(O)c1-2	> 100 µM	> 100 µM	> 100 µM	> 100 µM	> 100 µM	> 100 µM	> 100 µM	> 100 µM	–	> 100 µM	> 100 µM	> 100 µM	> 100 µM	> 100 µM	> 100 µM	> 100 µM	–	–
OCSc1nn(CO)c(=S)s1	–	55.4 µM	45.2 µM	75.3 µM	> 100 µM	34.3 µM	49.9 µM	92.7 µM	11.9 µM	> 100 µM	56.8 µM	48.1 µM	34.8 µM	67.8 µM	71.9 µM	> 100 µM	66.6 µM	–
O=C1C[C@H]2[C@H](c3ccc(Br)cc3)[C@H]3C(=O)c4ccccc4NC(=O)[C@@H]3[C@@]2(O)c2ccccc2N1	78.8 µM	33.1 µM	49.7 µM	30.8 µM	91.9 µM	26 µM	> 100 µM	78.8 µM	90.8 µM	> 100 µM	> 100 µM	54.1 µM	61.5 µM	40.2 µM	> 100 µM	62 µM	–	55 µM
Nc1ccc(N)c2c1C(=O)c1c(N)ccc(N)c1C2=O	> 100 µM	> 100 µM	> 100 µM	> 100 µM	> 100 µM	> 93.5 µM	> 100 µM	> 100 µM	–	> 100 µM	> 100 µM	> 100 µM	> 100 µM	> 100 µM	> 100 µM	> 100 µM	–	–
CCn1cnc2c(NC(C)=O)ncnc21	–	> 100 µM	> 100 µM	> 100 µM	> 100 µM	> 100 µM	> 100 µM	> 100 µM	–	> 100 µM	> 100 µM	> 100 µM	> 100 µM	> 100 µM	> 100 µM	> 100 µM	> 100 µM	> 100 µM
Cc1nn(C)c2c1C(=O)N(C)CC(=O)N2C	> 100 µM	> 100 µM	> 100 µM	> 100 µM	> 100 µM	> 100 µM	> 100 µM	> 100 µM	> 100 µM	> 100 µM	> 100 µM	> 100 µM	> 100 µM	> 100 µM	> 100 µM	> 100 µM	–	> 100 µM
COc1cc(/C=C(\C#N)c2ccccn2)cc(Br)c1O	–	> 100 µM	> 100 µM	> 100 µM	> 100 µM	> 100 µM	> 100 µM	> 100 µM	> 100 µM	> 100 µM	> 100 µM	> 100 µM	> 100 µM	> 100 µM	83.2 µM	> 100 µM	–	> 100 µM
CC[C@]12C=CCN3CCC4(c5cc([C@@]6(C(=O)OC)CC7CN(CCc8c6[nH]c6ccccc86)C[C@@H]6CCC[C@H]76)c(OC)cc5N(C)C4[C@](O)(C(=O)OC)C1OC(C)=O)C32 (some centres not stated)	0.816 µM	3.64 µM	1.31 µM	> 3.12 µM	> 10 µM	0.554 µM	> 10 µM	> 2.54 µM	0.788 µM	> 4.07 µM	> 5.19 µM	> 10 µM	> 10 µM	0.375 µM	> 3.23 µM	0.181 µM	–	–
